Laboratory results reported in US8933035B2, “Transglutaminase-activating peptide and cosmetic or pharmaceutical composition containing same” (ISP Investments Inc., priority 2009, dated 2015).

Tests used:
transglutaminases = assay: total enzyme activity of transglutaminases in normal human keratinocytes (fluorescein-labelled cadaverine substrate); format: cell-based; settings: NHKs, 0.5 ppm
Description: The objective of this study was to determine the influence of peptide SEQ ID NO: 5 on the total activity of transglutaminases in normal human keratinocytes (NHKs). To this end, the total enzyme activity of transglutaminases was assayed by spectrophotometry by means of an amino acid donor substrate, the amino acids being labelled with fluorescein.
NHKs were placed in black 96-well plates. After four days of culture, the NHKs were treated with a 1% solution of a mother solution containing 50 ppm of peptide SEQ ID NO: 5 for 24 or 48 hours (the active ingredient was added every 24 hours). A positive control was created by treating the cells with EGCG (epigallocatechin gallate, the main polyphenol ingredient in green tea) at a concentration of 20 μg/ml. The substrate used was cadaverine labelled with fluorescein (Invitrogen A10466) diluted to 100 μM in the culture medium. […] After two rinses in ethanol, then three rinses in the HBSS buffer, 100 μl of PBS were added to each well and a reading was taken by spectrophotometer at excitation wavelengths of 485 nm and emission wavelengths of 530 nm. Under these conditions, the transglutaminase activity was proportional to the amount of fluorescence emitted (expressed in fluorescence units), based on the total amount of proteins present in each well, previously assayed by the BCA technique.

TG1 [1] = assay: immunofluorescence labelling of TG1 in cultured normal human keratinocytes; format: cell-based; settings: 0.5 ppm, 24 hours
Description: (§1) The objective of this study was to determine the influence of peptide SEQ ID NO: 5 on the expression of the different transglutaminases expressed in the human skin. To this end, a culture of normal human keratinocytes (NHKs) and a skin biopsy were subjected to specific labellings by immunofluorescence. Cultures of normal human fibroblasts were also labelled by immunofluorescence, specifically for TG2, which is expressed in these types of cell. Cultured NHKs were treated with a 1% solution of a mother solution containing 50 ppm of peptide SEQ ID NO: 5 for 24 hours. For immunolabelling by the anti-TG1 antibody, the cells were washed and fixed with 3.7% paraformaldehyde for 10 minutes. The cells were then incubated in the presence of a specific anti-TG1 antibody (Clinisciences BT-621, mouse monoclonal), then in the presence of a suitable secondary antibody coupled to a fluorescent marker. For the other immunolabellings, the cells were washed and fixed with cold methanol for 1 minute. The cells were then incubated in the presence of a specific antibody; anti-TG2 (ABCAM® ab2972 antibody, rabbit polyclonal), anti-TG3 (ABCAM® ab53236 antibody, mouse monoclonal) or anti-TG5 (ABCAM® ab26992 antibody, rabbit polyclonal). After mounting in a medium ad hoc, the slides were observed under epifluorescence microscope (ECLIPSE® E 80i microscope by Nikon Corporation).

TG2 [2] = assay: immunofluorescence labelling of TG2 in cultured normal human keratinocytes; format: cell-based; settings: 0.5 ppm, 24 hours
Description: as §1

TG3 [3] = assay: immunofluorescence labelling of TG3 in cultured normal human keratinocytes; format: cell-based; settings: 0.5 ppm, 24 hours
Description: as §1

TG5 = assay: immunofluorescence labelling of TG5 in cultured normal human keratinocytes; format: cell-based; settings: 0.5 ppm, 24 hours
Description: as §1

TG2 [4] = assay: immunofluorescence labelling of TG2 in cultured normal human fibroblasts; format: cell-based; settings: 0.5 ppm, 24 hours
Description: as §1, with “Corporation). […]” for “Corporation).”

TG1 [5] = assay: immunolabelling of TG1 in ex vivo human skin biopsies; format: cell-based; settings: cultivated ex vivo skin biopsies, 0.5 ppm topically, 24 hours
Description: (§2) Biopsies of human skin were placed in culture at the air/liquid interface. A 1% solution of a mother solution containing 50 ppm of peptide SEQ ID NO: 5 was applied topically over 24 hours. For the labellings of TG1 and TG2, the skin biopsies were then enclosed in resin and frozen in nitrogen. Sections of approximately 6 μm were then made by cryostat. Immunolabelling was carried out by means of a specific antibody; anti-TG1 (Clinisciences BT-621, mouse monoclonal) or anti-TG2 (ABCAM® ab2972 antibody, rabbit polyclonal), then by means of a suitable secondary antibody coupled to a fluorescent marker. The skin sections were then examined under epifluorescence microscope (ECLIPSE® E 80i microscope by Nikon Corporation).

TG2 [6] = assay: immunolabelling of TG2 in ex vivo human skin biopsies; format: cell-based; settings: cultivated ex vivo skin biopsies, 0.5 ppm topically, 24 hours
Description: as §2

TG3 [7] = assay: immunolabelling of TG3 in ex vivo human skin biopsies; format: cell-based; settings: cultivated ex vivo skin biopsies, 0.5 ppm topically, 24 hours
Description: Biopsies of human skin were placed in culture at the air/liquid interface. A 1% solution of a mother solution containing 50 ppm of peptide SEQ ID NO: 5 was applied topically over 24 hours.
For the labellings of TG3, the skin biopsies were enclosed in paraffin and histological sections 3 μm thick were made. The slides were deparaffined, hydrated, then immunolabelled by an antibody directed against TG3 (ABCAM® ab53236 antibody, mouse monoclonal), then by a suitable secondary antibody coupled to a fluorescent marker. The skin sections were then examined under epifluorescence microscope (ECLIPSE® E 80i microscope by Nikon Corporation).

pankeratins = assay: immunolabelling of epidermal differentiation marker pankeratins; format: cell-based, human; settings: 0.5 ppm, 24 hours; labelled in skin biopsies
From the text: (§3) The objective of this study was to determine the influence of peptide SEQ ID NO: 5 on epidermal differentiation. To this end, the expression of the main markers of epidermal differentiation, expressed specifically in the keratinocytes in the suprabasal layers, were studied. The tested markers are transglutaminase 1, pankeratins, filaggrin, involucrin and loricrin. On the other hand, filaggrin, involucrin and loricrin are precursors of the cornified envelope and of transglutaminase substrates.
(§4) Biopsies of human skin were placed in culture at the air/liquid interface. A 1% solution of a mother solution containing 50 ppm of peptide SEQ ID NO: 5 was applied topically over 24 hours. The biopsies were then enclosed in paraffin and histological sections 3 μm thick were made. The slides were deparaffined, hydrated, then immunolabelled by an antibody directed against TG1 (Clinisciences BT-621, mouse monoclonal) or cyto-pankeratins (NOVOCASTRA® NCL-CK10 antibody, mouse monoclonal), or loricrin (ABCAM® ab24722 antibody, rabbit polyclonal), or involucrin (NOVOCASTRA® NCL-INV antibody, clone SY5, mouse monoclonal) or filaggrin (Tebu Santa Cruz sc-58761, mouse monoclonal). For easier observation, the rings of the cells can be counter-stained by DAPI (4′,6′ di amidine-2-phenyl indole, a blue fluorescent molecule capable of binding strongly to DNA). […]

involucrin [8] = assay: immunolabelling of epidermal differentiation marker involucrin; format: cell-based, human; settings: 0.5 ppm, 24 hours; cultured NHKs and skin biopsies
From the text: as §3
(§5) Cultured NHKs were treated with a 1% solution of a mother solution containing 50 ppm of peptide SEQ ID NO: 5 for 24 hours. The cells were then washed and fixed with 3.7% paraformaldehyde for 10 minutes. After unmasking of specific sites, the cells were incubated in the presence of a specific antibody directed against TG1 (Clinisciences BT-621, mouse monoclonal), or against loricrin (ABCAM® ab24722 antibody, rabbit polyclonal), or involucrin (NOVOCASTRA® NCL-INV antibody, mouse monoclonal, clone SY5), then incubated in the presence of a suitable secondary antibody coupled to a fluorescent marker. For easier observation, the rings of the cells can be counter-stained by DAPI (4′,6′ di amidine-2-phenyl indole), a blue fluorescent molecule capable of binding strongly to DNA). […]

filaggrin = assay: immunolabelling of epidermal differentiation marker filaggrin; format: cell-based, human; settings: 0.5 ppm, 24 hours; labelled in skin biopsies
From the text: as §3, §4

loricrin [9] = assay: immunolabelling of epidermal differentiation marker loricrin; format: cell-based, human; settings: 0.5 ppm, 24 hours; cultured NHKs and skin biopsies
From the text: as §3, §5

TG1 [10] = assay: immunolabelling of epidermal differentiation marker TG1; format: cell-based, human; settings: 0.5 ppm, 24 hours; cultured NHKs and skin biopsies
From the text: as §3, §5

TG1 [11] = assay: immunoblot of TG1 in cultured NHKs; format: cell-based, human; settings: 1% of 50 ppm mother solution, 24 hours
Description: (§6) Cultured NHKs were treated with a 1% solution of a mother solution containing 50 ppm of peptide SEQ ID NO: 5 for 24 hours. The cells were then rinsed and detached from the support by scraping in a RIPA buffer in the presence of a cocktail of protease inhibitors (Thermo Scientific, Rockford, USA). The lysed cells were centrifuged at 4° C. at 10,000 rpm for 20 minutes and the supernatants were collected. The samples were then standardised by assaying of the proteins by BCA kit (Pierce, France). The samples were mixed, then subjected to electrophoresis on NUPAGE® 3-8% tris-acetate gel in a NuPAGE NUPAGE® tris-acetate migration buffer, then blotted on a membrane of nitrocellulose by means of a blotting device (Invitrogen, Paisley, UK). The membranes were saturated in 5 TBS milk for 2 hours at ambient temperature, then incubated at 4° C. overnight with a primary antibody directed against TG1 (Clinisciences BT-621, monoclonal mouse) or against involucrin (NOVOCASTRA®NCL-INV antibody, clone SY5, mouse monoclonal) or against loricrin (ABCAM® ab24722 antibody, rabbit polyclonal). After washing by 0.05% TBS-Tween buffer, the membrane was incubated with a suitable secondary antibody coupled to peroxidase. The blots were then developed by means of a chemiluminescent substrate (SuperSignal West Dura Extended Duration Substrate, Pierce, Brebiere, France).

involucrin [12] = assay: immunoblot of involucrin in cultured NHKs; format: cell-based, human; settings: 1% of 50 ppm mother solution, 24 hours
Description: as §6

loricrin [13] = assay: immunoblot of loricrin in cultured NHKs; format: cell-based, human; settings: 1% of 50 ppm mother solution, 24 hours
Description: as §6

biopsies of human skin [14] = assay: epidermal differentiation, morphology of skin sections ex vivo; format: cell-based; settings: 0.5 ppm topically, 24 hours
Description: Biopsies of human skin were placed in culture at the air/liquid interface. A 1% solution of a mother solution containing 50 ppm of peptide SEQ ID NO: 5 was applied topically over 24 hours. The biopsies were then enclosed in paraffin and histological sections 3 μm thick were made. The slides were deparaffined, hydrated, then immunolabelled by an antibody directed against TG1 (Clinisciences BT-621, mouse monoclonal) or cyto-pankeratins (NOVOCASTRA® NCL-CK10 antibody, mouse monoclonal), or loricrin (ABCAM® ab24722 antibody, rabbit polyclonal), or involucrin (NOVOCASTRA® NCL-INV antibody, clone SY5, mouse monoclonal) or filaggrin (Tebu Santa Cruz sc-58761, mouse monoclonal). For easier observation, the rings of the cells can be counter-stained by DAPI (4′,6′ di amidine-2-phenyl indole, a blue fluorescent molecule capable of binding strongly to DNA). A suitable secondary antibody coupled to a fluorescent marker was then used. After mounting in a medium ad hoc, the slides were observed under epifluorescence microscope (ECLIPSE® E 80i microscope by Nikon Corporation).

human fibroblasts = assay: Ibidi in vitro healing model of fibroblast regeneration; format: cell-based; settings: 0.5 ppm and 1.5 ppm
Description: The Ibidi in vitro healing model was used (Biovalley, Marne la Vallée, France). Human fibroblasts were sown in two separate compartments of an Ibidi insert, which was then placed in a culture dish. On confluence, the insert was removed, thus creating an acellular zone measuring 400 μm wide between the two cellular lawns. The peptide diluted to 1% and 3% from a mother solution containing 50 ppm of peptide SEQ ID NO: 5 was then added to the culture medium, and the treatment was carried out for 48 hours with renewal of the active ingredient every 24 hours. Inspection by phase contrast microscopy (Olympus CK40 microscope, ×5, connected to an Olympus E-510 camera) was carried out at different times (0 to 48 hours) during the migration process.

biopsies of human skin [15] = assay: study of epidermal regeneration, histology of skin biopsies; format: cell-based; settings: 1% of 50 ppm mother solution topically, 24 hours
Description: Biopsies of human skin were placed in culture at the air/liquid interface. A 1% solution of a mother solution containing 50 ppm of peptide SEQ ID NO: 5 was applied topically, then the samples were incubated for 24 hours. The skin biopsies were then enclosed in paraffin and histological sections 3 μm thick were made. The sections were deposited on Superfrost Plus slides (Menzel Glaser, Thermo Scientific), then deparaffined in xylene and rehydrated in a series of alcohol-water solutions. The sections were then stained by 50% haematoxylin for 3 minutes, rinsed, then stained with 60% eosin for 3 minutes and rinsed in water. The sections were then dehydrated, mounted in Eukitt and examined by optical microscopy.

- increase in total transglutaminase enzyme activity compared to the untreated control (transglutaminases; after 24 hours): 30%
- increase in total transglutaminase enzyme activity compared to the untreated control (transglutaminases; after 48 hours): 47.7%
Substance: SEQ ID NO: 5 (RRGQ)
- expression of TG1 (immunofluorescence) (TG1 [1]): stimulates the expression
- expression of TG2 (immunofluorescence) (TG2 [2]): stimulates the expression
- expression of TG3 (immunofluorescence) (TG3 [3]): stimulates the expression
- expression of TG5 (immunofluorescence) (TG5): stimulates the expression
- expression of TG2 (immunofluorescence) (TG2 [4]): stimulates the expression
- expression of TG1 (immunofluorescence) (TG1 [5]): stimulates the expression
- expression of TG2 (immunofluorescence) (TG2 [6]): stimulates the expression
- expression of TG3 (immunofluorescence) (TG3 [7]): stimulates the expression
- expression of pankeratins (immunofluorescence) (pankeratins): stimulates the expression
- expression of involucrin (immunofluorescence) (involucrin [8]): stimulates the expression
- expression of filaggrin (immunofluorescence) (filaggrin): stimulates the expression
- expression of loricrin (immunofluorescence) (loricrin [9]): stimulates the expression
- expression of TG1 as differentiation marker (immunofluorescence) (TG1 [10]): stimulates the expression
- increase in expression of TG1 (quantitative analysis of immunoblots) (TG1 [11]): 20%
- increase in expression of involucrin (quantitative analysis of immunoblots) (involucrin [12]): 30%
- increase in expression of loricrin (quantitative analysis of immunoblots) (loricrin [13]): 16%
- epidermal differentiation, cornified layer morphology (biopsies of human skin [14]): thicker cornified layer
- dose dependence of the effect on fibroblast invasion (human fibroblasts): dose-dependent
- invasion of the acellular zone with fibroblasts compared to control (human fibroblasts; 0 to 48 hours): quicker
- cells of the basal layer in histological sections of epidermis (biopsies of human skin [15]): Greater density of the cells of the basal layer
- cornified layer in histological sections of epidermis (biopsies of human skin [15]): neo-synthesis of the cornified layer, which appears thicker and better hydrated
